For series [1], the system named is Chondrozyten. Put plainly: IL-1-induced chondrocytic chondrolysis in chondrocyte agarose culture, 35S-sulfate incorporation. As to conditions: agarose cell culture with 5 u/ml human rec. IL-1 alpha; factor relative to IL-1 treated control.
Series [2] deals with Chondrozyten. Description: Stimulation of cartilage matrix (proteoglycan) synthesis in chondrocyte agarose culture, 35S-sulfate incorporation. The series is classed as cell-based, Rinder. As to conditions: Chondrocyte, read-out: Stimulationsfaktor der Proteoglykansynthese. The source says:
1. Wirksamkeit in der Synthese-Stimulierung von Knorpel-Matrix, Prüfung in der Chondrozyten-Kultur
Zellen: Den Fußgelenken frisch geschlachteter Rinder werden der hyaline Knorpel entnommen, mit Pronase (Boehringer Mannheim) und Collagenase (Sigma), die native Matrix enzymatisch abgebaut, und die Chondrozyten in 1 %iger "low melting Agarose" in 24er Multiwell-Schalen in einer Zelldichte von 4 x 10⁶ pro well ausplattiert.
Medium: Komplettes Medium enthält HAM's F12 (Biochrom KG, Berlin) und 10 % foetales Kälberserum (Boehringer Mannheim), die Testsubstanz wird in Medium gelöst, üblicherweise in einer Konzentration von 10⁻⁵ M zugegeben und bei jedem Mediumwechsel erneut zugefügt.
Versuchsdurchführung: Die Behandlung erfolgt vom dritten bis zehnten Tag der Primärkultur, am 9. […] Die dissoziative Extraktion der Proteoglykane aus der Agarose-Schicht wird mit 8M Guanidinium-Hydrochlorid und beigefügten Proteinase-Inhibitoren (Sigma) unter Schütteln bei 4° C über 24 h durchgeführt. Der Überstand wird nach Zentrifugation über eine PD 10 ®Sephadex G 25 Säule in freies und inkorporiertes Sulfat getrennt, dessen Aktivität nach Aliquotierung im β-Szintillationscounter gemessen wird.
Auswertung: Der Parameter für die Matrixproduktion der Chondrozyten ist die Menge synthetisierter Proteoglykane, gemessen als Sulfatinkorporation in cpm. Aus vier Wells pro Gruppe wird der Mittelwert errechnet. Dieser wird durch den Mittelwert der unbehandelten Kontrolle dividiert, und ergibt somit einen Stimulationsfaktor, der bei Stimulation der Matrixsynthese größer 1 ist, bei Hemmung derselben durch Substanzwirkung kleiner 1, und bei unveränderter Matrixsynthese gleich 1 ist.
Als Standard wird Diacerein eingesetzt, das unter dem Markennamen "Artodar" von der Firma Proter bzw. […] Tabelle II

Series [3] has as its system Rattenlebermikrosomen. Description: Inhibition of microsomal lipid peroxidation (malondialdehyde/thiobarbituric acid). As to conditions: rat liver microsomes, FeSO₄ start, 10 min 37°C; read-out: IC50 Mikrosomale Lipidperoxidation. The series is classed as biochemical, Ratte. As for the experimental part: 4. Hemmung der Mikrosomalen Lipidperoxidation […]
Alle Schritte werden bei 0°C durchgeführt. Die Leber einer Ratte wird, um alles Hämoglobin zu entfernen, mit 0,9 % NaCl-Lösung gründlich gespült. Die grob zerkleinerte Leber wird dann in 10 mM Tris/HCl pH 7,4; 250 mM Saccharose (10 ml Puffer/g Leber) gepottert. Zunächst wird 5 Minuten bei 600xg zentrifugiert. Der Überstand wird dann 10 min bei 12000xg zentrifugiert und wird mit festem CaCl₂ (117,6 mg/100 ml) auf eine Konzentration von 8 mM eingestellt. Durch Zentrifugieren bei 25000 xg (15 min) wird ein Mikrosomenniederschlag gewonnen. Dieser Niederschlag wird im gleichen Volumen Puffer (10 mM Tris/HCl pH 7,4; 150 mM KCl) rehomogenisiert und erneut 15 min bei 25000 xg zentrifugiert.
Ein Testansatz besteht aus 20 µl Mikrosomen (100 mg/ml), vgl. oben, gelöst in Puffer (250 mM Tris/HCl pH 6,6, 750 mM KCl), 10 µl 50 mM MgCl₂, 10 µl 200 mM Isocitronensäure, 10 µl 4mM NADP (3,028 mg/ml Wasser), 10 µl 25 mM Niacinamid, 10 µl Isocitratdehydrogenase (1:100 verdünnt) und 20 µl Wasser oder Testsubstanz. Gestartet wird die Reaktion mit 10 µl 0,25 mM FeSO₄. Die Inkubation dauert 10 Minuten und erfolgt bei 37°C. Gestoppt wird mit 500 µl eiskalter 20 %iger Trichloressigsäure. Entstandenes Malondialdehyd wird durch Zugabe von 500 µl 0,67 %iger Thiobarbitursäure und 30 Minuten Inkubation bei 90°C in eine pinkfarbene Verbindung überführt, die bei 532 nm gemessen wird. Die Extinktion im Kontrollansatz ohne Prüfpräparat wird auf 0 % Hemmung gesetzt, während das völlige Verschwinden des Signals 100 % Hemmung bedeutet.

Where two headings read alike, the source gives them in different places.

In the case of `CC(C)(C)c1cc(C(Nc2ccc(Cl)cc2)P(C)(=O)O)cc(C(C)(C)C)c1O` (centres unmarked) [Beispiel 41], the “Stimulationsfaktor der Proteoglykansynthese” value in series [1] is recorded as 3,5. Turning to `CCOP(=O)(OCC)C(NCc1ccc(N)cc1)c1cc(C(C)(C)C)c(O)c(C(C)(C)C)c1` (centres unmarked) [Beispiel 34], the fold induction at 10 µM in series [2] is 1.2. Also, the concentration for half-maximal inhibition (IC50) in series [3] turned out to be 700 nM.

Regarding `CC(C)(C)c1cc(C(Nc2ccc(Cl)cc2)P(=O)(O)O)cc(C(C)(C)C)c1O` (centres unmarked) [Beispiel 4], the IC50 in series [3] came to 710 nM. As to `CCOP(=O)(OCC)C(NCc1ccc2c(c1)OCO2)c1cc(C(C)(C)C)c(O)c(C(C)(C)C)c1` (centres unmarked) [Beispiel 30], the fold induction at 10 µM in series [2] came out at 1.4. Besides, the “Stimulationsfaktor der Proteoglykansynthese” value in series [1] was 1,5. On to `CCOP(=O)(OCC)C(Nc1ccc(S(N)(=O)=O)cc1)c1cc(C(C)(C)C)c(O)c(C(C)(C)C)c1` (centres unmarked) [Beispiel 68], for which, in series [3], the IC50 was 2370 nM. In addition, the “Stimulationsfaktor der Proteoglykansynthese” value in series [1] is listed as 1,3. For the compound `CCN(CC)CCNC(c1cc(C(C)(C)C)c(O)c(C(C)(C)C)c1)[PH](=O)O` (centres unmarked) [Beispiel 14], the “Stimulationsfaktor der Proteoglykansynthese” value in series [1] is on record as 1,2. As for `CCOP(=O)(OCC)C(Nc1ccc(F)cc1)c1cc(C(C)(C)C)c(O)c(C(C)(C)C)c1` (centres unmarked) [Beispiel 38], the fold induction at 10 µM in series [2] stood at 1.7. Besides, in series [1], the “Stimulationsfaktor der Proteoglykansynthese” value is listed as 1,3.

As for `CCOP(=O)(OCC)C(NC1CCN(Cc2ccccc2)CC1)c1cc(C(C)(C)C)c(O)c(C(C)(C)C)c1` (centres unmarked) [Beispiel 18], in series [3], the IC50 stood at 2030 nM. For `CCCCOP(=O)(OCCCC)C(Nc1ccc2ccccc2c1)c1cc(C(C)(C)C)c(O)c(C(C)(C)C)c1` (centres unmarked) [Beispiel 77], in series [3], the IC50 came to 8700 nM. Moreover, the “Stimulationsfaktor der Proteoglykansynthese” value in series [1] is given as 1,3. With `CC(C)(C)c1cc(C(NCc2ccccc2)[PH](=O)O)cc(C(C)(C)C)c1O` (centres unmarked) [Beispiel 27], the “Stimulationsfaktor der Proteoglykansynthese” value in series [1] is reported as 1,2. Consider `CCCOP(=O)(OCCC)C(NC1CCCCC1)c1cc(C(C)(C)C)c(O)c(C(C)(C)C)c1` (centres unmarked) [Beispiel 9], for which the IC50 in series [3] was determined as 2100 nM. Regarding `CCOP(=O)(OCC)C(NC1CCCCC1)c1cc(C(C)(C)C)c(O)c(C(C)(C)C)c1` (centres unmarked) [Beispiel 8], the fold induction at 10 µM in series [2] was 1.2. Besides, the IC50 in series [3] was 730 nM. On to `CC(C)(C)c1cc(C(Nc2ccc(Cl)cc2)P(=O)(Oc2ccccc2)Oc2ccccc2)cc(C(C)(C)C)c1O` (centres unmarked) [Beispiel 47], for which, in series [1], the “Stimulationsfaktor der Proteoglykansynthese” value is reported as 1,8. With `CCOP(=O)(OCC)C(Nc1ccc(C(=O)OC)cc1)c1cc(C(C)(C)C)c(O)c(C(C)(C)C)c1` (centres unmarked) [Beispiel 66], the IC50 in series [3] amounted to 750 nM. Take `CCOP(=O)(O)C(Nc1ccccn1)c1cc(C(C)(C)C)c(O)c(C(C)(C)C)c1` (centres unmarked) [Beispiel 78]: in series [2], the fold induction at 10 µM was found to be 1.4.

Consider `CCOP(=O)(OCC)C(NCc1ccc(OC)cc1)c1cc(C(C)(C)C)c(O)c(C(C)(C)C)c1` (centres unmarked) [Beispiel 32], for which, in series [1], the “Stimulationsfaktor der Proteoglykansynthese” value is on record as 1,4. `CCOP(=O)(OCC)C(NCc1ccc(C#N)cc1)c1cc(C(C)(C)C)c(O)c(C(C)(C)C)c1` (centres unmarked) [Beispiel 35]: the “Stimulationsfaktor der Proteoglykansynthese” value in series [1] is recorded as 3,9. Take `CC(C)(C)c1cc(C(Nc2ccc(Cl)cc2)[PH](=O)O)cc(C(C)(C)C)c1O` (centres unmarked) [Beispiel 40]: the IC50 in series [3] was found to be 490 nM. In series [1], the “Stimulationsfaktor der Proteoglykansynthese” value is reported as 2,1. On to `CCOP(=O)(OCC)C(Nc1cc(C(F)(F)F)ccc1F)c1cc(C(C)(C)C)c(O)c(C(C)(C)C)c1` (centres unmarked) [Beispiel 52], for which, in series [2], the fold induction at 10 µM was found to be 1.7. As to `CC(=O)Oc1cccc2c1C(=O)c1c(OC(C)=O)cc(C(=O)O)cc1C2=O` [Diacerein, reference compound], in series [2] (agarose cell culture, test substance usually 10⁻⁵ M, mean sulfate incorporation divided by untreated control (>1 = stimulation)), the fold induction at 10 µM is 1. Also, the “Stimulationsfaktor der Proteoglykansynthese” value in series [1] is recorded as 1,1. For `CCOP(=O)(OCC)C(Nc1ccc(C(F)(F)F)cc1)c1cc(C(C)(C)C)c(O)c(C(C)(C)C)c1` (centres unmarked) [Beispiel 51], in series [2], the fold induction at 10 µM stood at 1.6. For `CCOP(=O)(OCC)C(NC(CC(C)C)C(=O)OC)c1cc(C(C)(C)C)c(O)c(C(C)(C)C)c1` (centres unmarked) [Beispiel 20], the IC50 in series [3] came out at 2100 nM.

For the compound `CCOP(=O)(OCC)C(NC1CC(C)(C)NC(C)(C)C1)c1cc(C(C)(C)C)c(O)c(C(C)(C)C)c1` (centres unmarked) [Beispiel 17], in series [3], the IC50 is 3180 nM. On to `CCOP(=O)(OCC)C(NC(C)C(=O)OC)c1cc(C(C)(C)C)c(O)c(C(C)(C)C)c1` (centres unmarked) [Beispiel 19], for which, in series [1], the “Stimulationsfaktor der Proteoglykansynthese” value is 4,3. In the case of `CCOP(=O)(OCC)C(Nc1ccccc1)c1cc(C(C)(C)C)c(O)c(C(C)(C)C)c1` (centres unmarked) [Beispiel 37], in series [1], the “Stimulationsfaktor der Proteoglykansynthese” value is 1,5.

Turning to `CCCCOP(=O)(OCCCC)C(NC1CCCCC1)c1cc(C(C)(C)C)c(O)c(C(C)(C)C)c1` (centres unmarked) [Beispiel 10], the IC50 in series [3] was determined as 9000 nM. In addition, in series [1], the “Stimulationsfaktor der Proteoglykansynthese” value is recorded as 1,5.

Consider `CCOP(=O)(OCC)C(Nc1ccc(Cl)c(Cl)c1)c1cc(C(C)(C)C)c(O)c(C(C)(C)C)c1` (centres unmarked) [Beispiel 48], for which the IC50 in series [3] amounted to 2950 nM. Besides, in series [1], the “Stimulationsfaktor der Proteoglykansynthese” value is listed as 1,7. For the compound `CCCOP(=O)(OCCC)C(Nc1ccc(Cl)cc1)c1cc(C(C)(C)C)c(O)c(C(C)(C)C)c1` (centres unmarked) [Beispiel 44], the IC50 in series [3] was 1050 nM. Also, in series [1], the “Stimulationsfaktor der Proteoglykansynthese” value is recorded as 1,5. On to `CCOP(=O)(OCC)C(Nc1ccccc1C(=O)OC)c1cc(C(C)(C)C)c(O)c(C(C)(C)C)c1` (centres unmarked) [Beispiel 65], for which, in series [2], the fold induction at 10 µM amounted to 1.3. The IC50 in series [3] worked out at 730 nM. Take `COP(=O)(OC)C(Nc1ccc(Cl)cc1)c1cc(C(C)(C)C)c(O)c(C(C)(C)C)c1` (centres unmarked) [Beispiel 43]: the 50% inhibitory concentration (IC50) in series [3] is 790 nM. In addition, in series [1], the “Stimulationsfaktor der Proteoglykansynthese” value is recorded as 1,4.

For the compound `CCCN(CCC)C(c1cc(C(C)(C)C)c(O)c(C(C)(C)C)c1)P(=O)(OCC)OCC` (centres unmarked) [Beispiel 21], in series [3], the IC50 came to 6350 nM. As to `COP(=O)(OC)C(NCc1ccc2c(c1)OCO2)c1cc(C(C)(C)C)c(O)c(C(C)(C)C)c1` (centres unmarked) [Beispiel 29], the IC50 in series [3] amounted to 690 nM. Besides, the “Stimulationsfaktor der Proteoglykansynthese” value in series [1] is 1,5. As for `CCOP(=O)(OCC)C(c1cc(C(C)(C)C)c(O)c(C(C)(C)C)c1)N(C)c1ccc(Cl)cc1` (centres unmarked) [Beispiel 54], the IC50 in series [3] is 2800 nM. Also, in series [1], the “Stimulationsfaktor der Proteoglykansynthese” value is reported as 1,4. In the case of `CCOP(=O)(OCC)C(Nc1ccc(NC(=N)N)cc1)c1cc(C(C)(C)C)c(O)c(C(C)(C)C)c1` (centres unmarked) [Beispiel 73], the IC50 in series [3] amounted to 670 nM. With `CCOP(=O)(OCC)C(NCc1ccc(Cl)cc1)c1cc(C(C)(C)C)c(O)c(C(C)(C)C)c1` (centres unmarked) [Beispiel 33], the “Stimulationsfaktor der Proteoglykansynthese” value in series [1] is given as 2,2. In the case of `CCOP(=O)(OCC)C(Nc1ccc2ccccc2c1)c1cc(C(C)(C)C)c(O)c(C(C)(C)C)c1` (centres unmarked) [Beispiel 76], the IC50 in series [3] worked out at 2050 nM. The same measure, in the same setting: under `CCOP(=O)(OCC)C(Nc1ccc2c(c1)CCCC2)c1cc(C(C)(C)C)c(O)c(C(C)(C)C)c1` (centres unmarked) [Beispiel 75] stands 2900 nM. Take `CC(C)(C)c1cc(C(NCc2ccc3c(c2)OCO3)[PH](=O)O)cc(C(C)(C)C)c1O` (centres unmarked) [Beispiel 28]: the “Stimulationsfaktor der Proteoglykansynthese” value in series [1] is recorded as 5,5. As for `CCOP(=O)(OCC)C(Nc1ccccc1Cl)c1cc(C(C)(C)C)c(O)c(C(C)(C)C)c1` (centres unmarked) [Beispiel 39], the IC50 in series [3] worked out at 2400 nM. Same read-out and setting: then `CCOP(=O)(OCC)C(NC1CCCCCC1)c1cc(C(C)(C)C)c(O)c(C(C)(C)C)c1` (centres unmarked) [Beispiel 11], with 970 nM; and `C=CCOP(=O)(OCC=C)C(Nc1ccc(Cl)cc1)c1cc(C(C)(C)C)c(O)c(C(C)(C)C)c1` (centres unmarked) [Beispiel 46], with 860 nM.

The values above are taken from EP0703239A1, “Aminomethylphosphonic and aminomethylphosphinic acids derivatives and their use in the treatment of degenerative articular diseases” (priority 1994, dated 1996).
